Data set [1] concerns the target Metabotropic glutamate receptor 5 (Rattus norvegicus, UniProt P31424). The data set can be described thus: Positive allosteric modulation of rat mGlu5 receptor expressed in HEK293A cells assessed as increase in glutamate induced-calcium mobilization preincubated for 2.3 mins followed by glutamate addition measured for 1.9 mins by Fluo-4 AM dye based fluorescence assay. It counts as functional, cell-based.

A short description of data set [2]: Fraction unbound in rat plasma at 5 uM after 4 hrs by equilibrium dialysis based LC/MS/MS analysis. It counts as ADME, cell-free. Background: In equilibrium dialysis free small molecules cross a membrane that holds back macromolecules.
Data set [3] deals with Metabotropic glutamate receptor 8 (Rattus norvegicus) (UniProt P70579). As to the kind of experiment: Negative allosteric modulation of rat mGlu8 receptor expressed in HEK/GIRK cells assessed as inhibition of glutamate induced-calcium mobilization preincubated for 2.3 mins followed by glutamate addition measured for 2.6 mins by Fluo-4 AM dye based fluorescence assay. It counts as functional, cell-based.
Metabotropic glutamate receptor 8 (Rattus norvegicus), sequence (P70579 whole entry): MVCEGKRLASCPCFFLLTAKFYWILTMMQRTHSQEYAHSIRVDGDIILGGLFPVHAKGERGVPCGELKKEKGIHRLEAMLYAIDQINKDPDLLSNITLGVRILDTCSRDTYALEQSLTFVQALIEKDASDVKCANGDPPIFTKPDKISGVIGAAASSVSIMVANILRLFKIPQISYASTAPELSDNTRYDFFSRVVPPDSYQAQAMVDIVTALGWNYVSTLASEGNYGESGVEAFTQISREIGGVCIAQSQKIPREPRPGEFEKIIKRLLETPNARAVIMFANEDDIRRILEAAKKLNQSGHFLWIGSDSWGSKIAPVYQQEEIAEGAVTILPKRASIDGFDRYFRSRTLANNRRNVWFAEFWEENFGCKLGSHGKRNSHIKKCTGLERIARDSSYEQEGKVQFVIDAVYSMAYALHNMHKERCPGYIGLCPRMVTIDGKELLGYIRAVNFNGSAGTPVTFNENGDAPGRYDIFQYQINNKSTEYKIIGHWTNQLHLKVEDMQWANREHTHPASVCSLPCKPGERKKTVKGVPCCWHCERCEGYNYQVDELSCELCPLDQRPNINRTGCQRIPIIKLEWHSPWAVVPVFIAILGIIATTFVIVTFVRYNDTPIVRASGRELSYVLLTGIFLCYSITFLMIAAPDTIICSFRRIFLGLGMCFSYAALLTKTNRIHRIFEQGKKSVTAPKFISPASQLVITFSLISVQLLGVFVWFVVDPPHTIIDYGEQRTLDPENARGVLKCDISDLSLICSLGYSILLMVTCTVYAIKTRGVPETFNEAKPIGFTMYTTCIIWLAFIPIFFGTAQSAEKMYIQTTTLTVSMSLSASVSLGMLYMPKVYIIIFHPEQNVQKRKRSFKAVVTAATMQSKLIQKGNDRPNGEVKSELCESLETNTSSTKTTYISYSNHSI

Data set [4] can be described thus: Unbound brain to plasma concentration ratio in Harlan CD-1 mouse at 3 mg/kg, ip by LC/MS-MS analysis. The format is ADME, organism-based. The following applies: read-out: K(p,uu,brain).
The target of data set [5] is Alpha-1D adrenergic receptor (Homo sapiens) (UniProt P25100). The data set can be described thus: Inhibition of human adrenergic alpha 1D receptor at 10 uM relative to control.
Alpha-1D adrenergic receptor (Homo sapiens), sequence (P25100 whole entry): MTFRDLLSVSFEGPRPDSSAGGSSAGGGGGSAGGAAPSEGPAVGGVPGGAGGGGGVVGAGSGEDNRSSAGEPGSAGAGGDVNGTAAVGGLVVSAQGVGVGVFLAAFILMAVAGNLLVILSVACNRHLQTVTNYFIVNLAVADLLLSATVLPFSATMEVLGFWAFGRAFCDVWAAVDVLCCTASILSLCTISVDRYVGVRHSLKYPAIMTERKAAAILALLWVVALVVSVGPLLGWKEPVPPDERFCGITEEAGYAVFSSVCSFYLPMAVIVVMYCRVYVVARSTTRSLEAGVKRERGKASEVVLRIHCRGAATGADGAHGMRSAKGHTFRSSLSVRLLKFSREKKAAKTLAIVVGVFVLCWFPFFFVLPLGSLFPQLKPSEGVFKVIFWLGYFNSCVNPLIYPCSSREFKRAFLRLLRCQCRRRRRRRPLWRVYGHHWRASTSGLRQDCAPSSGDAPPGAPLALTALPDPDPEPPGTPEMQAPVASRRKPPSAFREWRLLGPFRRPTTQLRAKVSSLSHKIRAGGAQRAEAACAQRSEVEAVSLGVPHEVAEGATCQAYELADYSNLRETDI
For data set [6], the target named is Endothelin receptor type B (Homo sapiens) (UniProt P24530). The data set can be described thus: Inhibition of human endothelin B receptor at 10 uM relative to control.
Endothelin receptor type B (Homo sapiens), sequence (P24530 whole entry): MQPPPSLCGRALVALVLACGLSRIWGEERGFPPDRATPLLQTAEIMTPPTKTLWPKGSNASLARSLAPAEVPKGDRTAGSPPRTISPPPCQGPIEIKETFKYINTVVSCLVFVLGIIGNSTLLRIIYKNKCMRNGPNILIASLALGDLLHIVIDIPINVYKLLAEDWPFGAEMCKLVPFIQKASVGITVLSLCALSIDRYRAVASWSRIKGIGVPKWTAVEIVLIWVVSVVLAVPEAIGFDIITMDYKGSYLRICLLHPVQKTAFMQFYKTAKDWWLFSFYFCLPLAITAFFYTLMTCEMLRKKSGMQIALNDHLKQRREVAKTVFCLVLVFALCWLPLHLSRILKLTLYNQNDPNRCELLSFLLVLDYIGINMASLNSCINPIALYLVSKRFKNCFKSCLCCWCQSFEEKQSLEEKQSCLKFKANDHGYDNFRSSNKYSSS
Data set [7] deals with Gamma-aminobutyric acid type B receptor subunit 1 (Homo sapiens) (UniProt Q9UBS5). The data set can be described thus: Inhibition of human GABA-B1A receptor at 10 uM relative to control.
Data set [8] deals with Glutamate NMDA receptor (Rattus norvegicus) (UniProt P35439+Q00959+Q00960+Q00961+Q62645+Q8VHN2+Q9R1M7). As to the kind of experiment: Inhibition of rat glutamate NMDA receptor phencyclidine binding site at 10 uM relative to control. It counts as protein-complex assay.
Data set [9] has as its target Interleukin-1 receptor type 1 (Mus musculus) (UniProt P13504). As to the kind of experiment: Inhibition of mouse IL1 receptor at 10 uM relative to control.
In data set [10] the target is Melatonin receptor type 1A (Homo sapiens) (UniProt P48039). The data set can be described thus: Inhibition of human MT1 receptor at 10 uM relative to control.
Data set [11] has as its target Muscarinic acetylcholine receptor M1 (Homo sapiens) (UniProt P11229). As to the kind of experiment: Inhibition of human muscarinic M1 receptor at 10 uM relative to control.
Data set [12] addresses Neuropeptide Y receptor type 2 (Homo sapiens) (UniProt P49146). As to the kind of experiment: Inhibition of human […] Y2 receptor at 10 uM relative to control.
The species entered for a further data set is Rattus norvegicus. As to the kind of experiment: Inhibition of rat rolipram binding site at 10 uM relative to control.
For data set [13], the target named is Sodium-dependent noradrenaline transporter (Homo sapiens) (UniProt P23975). The data set can be described thus: Inhibition of human NET at 10 uM relative to control.
Sodium-dependent noradrenaline transporter (Homo sapiens), sequence (P23975 whole entry): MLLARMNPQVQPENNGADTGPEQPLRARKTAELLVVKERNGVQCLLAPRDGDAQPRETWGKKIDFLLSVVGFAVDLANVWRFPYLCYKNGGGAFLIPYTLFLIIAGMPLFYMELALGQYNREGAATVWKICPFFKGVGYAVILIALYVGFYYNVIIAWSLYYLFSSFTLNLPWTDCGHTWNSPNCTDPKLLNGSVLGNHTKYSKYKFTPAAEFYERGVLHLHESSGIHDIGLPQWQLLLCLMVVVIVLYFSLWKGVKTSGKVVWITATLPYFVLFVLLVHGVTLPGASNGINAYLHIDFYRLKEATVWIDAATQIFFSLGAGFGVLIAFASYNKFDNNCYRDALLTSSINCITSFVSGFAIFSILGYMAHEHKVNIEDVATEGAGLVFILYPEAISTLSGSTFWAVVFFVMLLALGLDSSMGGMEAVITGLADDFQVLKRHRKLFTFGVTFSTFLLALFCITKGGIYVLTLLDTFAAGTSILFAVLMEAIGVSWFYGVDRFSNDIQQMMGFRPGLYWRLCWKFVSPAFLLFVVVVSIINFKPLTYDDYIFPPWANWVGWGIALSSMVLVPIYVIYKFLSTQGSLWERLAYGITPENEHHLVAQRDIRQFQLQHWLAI

Active and inactive are the calls of the source. The rule behind the calls is not given here. A value given as a limit tells only on which side of the number the result lay.

Metabotropic glutamate receptor 5, sequence (P31424 whole entry): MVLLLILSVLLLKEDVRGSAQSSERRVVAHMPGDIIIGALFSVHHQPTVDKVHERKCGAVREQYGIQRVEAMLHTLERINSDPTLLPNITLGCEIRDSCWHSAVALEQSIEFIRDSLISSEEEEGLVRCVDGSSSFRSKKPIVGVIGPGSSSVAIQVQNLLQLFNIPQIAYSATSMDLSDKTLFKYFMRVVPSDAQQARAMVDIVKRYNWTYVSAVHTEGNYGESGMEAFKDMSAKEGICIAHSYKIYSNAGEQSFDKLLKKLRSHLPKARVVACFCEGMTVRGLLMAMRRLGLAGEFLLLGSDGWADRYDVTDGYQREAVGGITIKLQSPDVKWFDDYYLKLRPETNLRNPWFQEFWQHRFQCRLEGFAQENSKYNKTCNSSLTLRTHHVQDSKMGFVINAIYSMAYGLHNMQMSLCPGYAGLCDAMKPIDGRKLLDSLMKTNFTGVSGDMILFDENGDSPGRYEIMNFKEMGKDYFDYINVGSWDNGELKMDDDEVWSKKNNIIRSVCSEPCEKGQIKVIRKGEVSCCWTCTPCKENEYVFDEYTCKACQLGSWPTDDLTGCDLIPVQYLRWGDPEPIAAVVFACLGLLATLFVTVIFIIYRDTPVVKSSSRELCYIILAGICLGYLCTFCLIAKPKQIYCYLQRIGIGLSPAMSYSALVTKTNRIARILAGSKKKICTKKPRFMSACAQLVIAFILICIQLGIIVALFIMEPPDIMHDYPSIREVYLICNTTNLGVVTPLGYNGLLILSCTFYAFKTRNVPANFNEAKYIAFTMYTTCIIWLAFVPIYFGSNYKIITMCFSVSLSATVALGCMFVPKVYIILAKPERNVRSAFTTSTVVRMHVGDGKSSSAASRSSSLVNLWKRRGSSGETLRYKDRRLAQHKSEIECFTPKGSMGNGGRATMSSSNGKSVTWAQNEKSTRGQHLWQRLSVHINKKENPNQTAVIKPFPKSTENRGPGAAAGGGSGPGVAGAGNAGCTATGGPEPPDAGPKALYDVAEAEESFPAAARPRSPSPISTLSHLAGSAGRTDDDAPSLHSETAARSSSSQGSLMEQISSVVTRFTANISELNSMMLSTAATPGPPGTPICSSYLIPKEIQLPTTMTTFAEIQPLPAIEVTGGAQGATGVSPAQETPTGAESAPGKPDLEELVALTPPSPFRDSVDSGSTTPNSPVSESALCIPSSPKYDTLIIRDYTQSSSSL
Interleukin-1 receptor type 1 (Mus musculus), sequence (P13504 whole entry): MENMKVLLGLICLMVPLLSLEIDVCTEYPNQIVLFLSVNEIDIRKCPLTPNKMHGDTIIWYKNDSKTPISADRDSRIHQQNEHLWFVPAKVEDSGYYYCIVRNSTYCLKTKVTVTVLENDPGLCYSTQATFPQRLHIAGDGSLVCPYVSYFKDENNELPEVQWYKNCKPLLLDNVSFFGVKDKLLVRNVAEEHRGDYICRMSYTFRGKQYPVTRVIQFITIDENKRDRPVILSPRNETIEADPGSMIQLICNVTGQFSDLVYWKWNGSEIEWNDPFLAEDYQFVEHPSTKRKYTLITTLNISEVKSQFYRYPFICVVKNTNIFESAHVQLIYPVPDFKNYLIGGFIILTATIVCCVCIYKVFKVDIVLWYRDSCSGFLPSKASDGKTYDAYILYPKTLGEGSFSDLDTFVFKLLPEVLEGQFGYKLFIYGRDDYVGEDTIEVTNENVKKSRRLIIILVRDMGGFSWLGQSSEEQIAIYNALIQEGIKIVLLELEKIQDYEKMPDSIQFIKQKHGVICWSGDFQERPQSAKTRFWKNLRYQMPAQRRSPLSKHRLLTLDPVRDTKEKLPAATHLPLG
Muscarinic acetylcholine receptor M1 (Homo sapiens), sequence (P11229 whole entry): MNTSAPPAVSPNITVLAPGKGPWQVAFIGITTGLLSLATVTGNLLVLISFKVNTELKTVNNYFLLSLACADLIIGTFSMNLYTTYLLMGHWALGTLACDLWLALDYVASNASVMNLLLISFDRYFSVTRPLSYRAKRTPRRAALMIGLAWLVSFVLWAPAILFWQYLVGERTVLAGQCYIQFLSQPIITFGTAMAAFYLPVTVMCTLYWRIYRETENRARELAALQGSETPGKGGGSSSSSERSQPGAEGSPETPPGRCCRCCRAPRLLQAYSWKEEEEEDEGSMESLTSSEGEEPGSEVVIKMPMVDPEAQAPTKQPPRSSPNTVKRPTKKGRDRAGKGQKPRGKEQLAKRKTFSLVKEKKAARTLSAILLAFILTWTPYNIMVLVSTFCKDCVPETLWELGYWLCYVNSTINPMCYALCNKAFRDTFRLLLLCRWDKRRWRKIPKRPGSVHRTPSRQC

As to `C[C@@H](COc1ccn(-c2ccc(F)cc2)c(=O)c1)Oc1ccccc1`, the EC50 (commonly the midpoint of the concentration-response curve) in [1] was more than 30 µM. Besides, the fraction unbound (usually free concentration divided by total concentration) at 4 h, 5 µM in data set [2] worked out at 0.18. Moreover, in [3], the inhibition (commonly the change of the read-out against control, counted positive when it falls) is “inactive”. Moreover, the Kp uu in data set [4] turned out to be 0.27. The inhibition in [5], in data set [6], in data set [7], in data set [8], in data set [9] and in [10] was more than 50% each time. The inhibition (in [11]; in [12]; in the data set listed under Rattus norvegicus; in data set [13]) was more than 50% each time.

(Values after ChEMBL document CHEMBL4130451, “Design and Synthesis of N-Aryl Phenoxyethoxy Pyridinones as Highly Selective and CNS Penetrant mGlu3 NAMs” (ACS Med Chem Lett, 2017).)
